From article PMC3337405 (Cancer Chemotherapy and Pharmacology, 2012)

How the values were obtained:
healthy volunteers [1] = experiment: Thorough QT/QTc study: QTcF change from baseline on day 3 (12-lead ECG); assay type: in vivo, human; settings: for QTcF change from time-matched baseline, Difference (Midostaurin – Placebo) / Upper bound of the one-sided 95% CI of Difference (Midostaurin – Placebo) in QTcF change: day 3; for QTcF change on day 3 from time-matched baseline: midostaurin arm
Text: This study was a phase I, randomized, double-blind, placebo- and active-controlled, 3-way, parallel-group study conducted at a single center in the United States and approved by the Arkansas Research Medical Testing, LLC, Institutional Review Board. The design followed the recommendations of the International Conference on Harmonisation of Technical Requirements for Registration of Pharmaceuticals for Human Use (ICH) E14 guideline on “The Clinical Evaluation of QT/QTc Interval Prolongation and Proarrhythmic Potential for Non-Antiarrhythmic Drugs” [19]. As such, the trial included a concurrent positive control group and addressed intrinsic variability by conducting multiple ECGs at baseline and during the study. The study was conducted according to the ethical principles of the Declaration of Helsinki, and written informed consent was obtained from each subject during screening.
The treatment regimen was selected to achieve maximal plasma exposure for QTc evaluation while minimizing the risks of excessive or prolonged exposure in healthy volunteers.
The baseline comparison was from day −1 to day 3 at matched time points.
The following hypothesis was tested to confirm that the study had sufficient assay sensitivity: [drawing 3] [drawing 4] where μmoxi(t) was the mean QTcF change from baseline observed following moxifloxacin 400 mg at time point t. If the null hypothesis was rejected, the study had sufficient sensitivity. The Simes method was used for the protection of an experiment-wise 5% type I error [22, 23]. With the Simes method, the original P values corresponding to 0.5, 1, 2, 3, and 4 h post baseline are ordered increasingly, that is, P 1 ≤ P 2 ≤ P 3 ≤ P 4 ≤ P 5. After the Simes correction, the P values were 5P 1, 5P 2/2, 5P 3/3, 5P 4/4, and P 5 respectively. If any of the 5 adjusted P values were <.05, assay sensitivity was claimed. Only the participants who completed all scheduled doses of study medication from day 1 to day 3 and had at least 1 ECG on day −1 (baseline) and at least 1 ECG on day 3 (time-matched day 3 data for the time-matched analysis) were included in the assay sensitivity test.
Electrocardiogram measurements at each time point were calculated as an average of 3 separate ECG extractions or replicates. (Each extraction was the mean of 3 beats.) If fewer than 3 measurements were available, the available samples were averaged (i.e., a minimum of 1 measure was required). For each subject, the time-matched baseline value was subtracted from the QT/QTc intervals to determine the change from baseline in QT/QTc intervals for that subject. The 2 null hypotheses described above were tested in a linear mixed-effect model with a compound symmetry covariance structure. The model included the baseline measure as covariate and treatment, time, and the treatment-by-time interaction as fixed effects, where time was a categorical variable and subject was a random effect.
The time-matched analysis was conducted on the QTcF change from the time-matched baseline as recommended by the ICH E14 guideline. Although modeling change from the time-matched baseline was the primary analysis, the change from the time-averaged baseline was also analyzed using the same model. For the averaged baseline, each triplicate ECG collection was averaged first, and then the averaged baseline was calculated based on all the averaged triplicate ECG and unscheduled ECGs.
(§1) Standard triplicate 12-lead ECGs were obtained at 9 time points over 24 h at baseline on day 3 and at 2 time points on day 1. Electrocardiogram analysis was performed at a blinded central reading facility (ERT, East Bridgewater, NJ) in digital format, with paper tracings obtained and archived immediately on site. Vital signs were assessed daily. Clinical laboratory parameters were assessed at baseline and at the end of study. Self-reported adverse events were continuously recorded from the first study treatment (placebo, day −1) through the end of study on day 4.

healthy volunteers [2] = experiment: Outlier analysis of QTc and other ECG parameters, ECG morphology; assay type: in vivo, human; settings: for QTcB >30 ms, time-matched change from baseline, participants: text: 30- to 60-ms category
Experimental: Outlier analysis for QTc was also exploratory because this study was not powered to detect individuals with genetic sensitivity to potential QT-prolonging drugs. The nonspecific outlier criterion was a change from baseline in QTc interval of 30–60 ms.
as §1

healthy volunteers [3] = experiment: Adverse events and discontinuations; assay type: in vivo, human
Experimental: as §1, with “Electrocardiogram” for “Standard triplicate 12-lead ECGs were obtained at 9 time points over 24 h at baseline on day 3 and at 2 time points on day 1. Electrocardiogram”

[4] = system: patients with ASM, mast cell leukemia, or systemic mastocytosis; settings: 100 mg twice daily; 26 patients; preliminary results; cited from earlier work
[5] = Plasma pharmacokinetics, noncompartmental analysis; settings: human, plasma, 75 mg; for Cmax: mean (SD)
Experimental: Blood samples for PK analysis were collected predose and 0.5, 1, 2, 3, 4, 8, 12, and 24 h post dose on days 1 and 3 at the same time as ECG assessments. […] Noncompartmental analysis (WinNonlin™ version 5.2, Pharsight, Sunnyvale, California) was performed to determine the following PK parameters: C max, T max, minimum (trough) plasma concentration over a dosing interval (C min), and AUC calculated using a trapezoidal method. For moxifloxacin, the AUC from time 0 to the last measurable concentration sampling time was calculated (AUC0–tlast).

[6] = midostaurin, 24 h post dose on day 3

## CO[C@@H]1[C@H](N(C)C(=O)c2ccccc2)C[C@H]2O[C@]1(C)n1c3ccccc3c3c4c(c5c6ccccc6n2c5c31)C(=O)NC4 [Midostaurin, N-benzoylstaurosporin]
Healthy volunteers [1]; 0 h
  QTcF change from time-matched baseline, Difference (Midostaurin – Placebo): -2.7 ms
  Upper bound of the one-sided 95% CI of Difference (Midostaurin – Placebo) in QTcF change: 1.3 ms
  QTcF change on day 3 from time-matched baseline: -3.2 ms
Healthy volunteers [1]; 0.5 h
  QTcF change from time-matched baseline, Difference (Midostaurin – Placebo): -1.9 ms
  Upper bound of the one-sided 95% CI of Difference (Midostaurin – Placebo) in QTcF change: 2.1 ms
Healthy volunteers [1]; 1 h
  QTcF change from time-matched baseline, Difference (Midostaurin – Placebo): -3.7 ms
  Upper bound of the one-sided 95% CI of Difference (Midostaurin – Placebo) in QTcF change: 0.3 ms
Healthy volunteers [1]; 2 h
  QTcF change from time-matched baseline, Difference (Midostaurin – Placebo): -5.1 ms
  Upper bound of the one-sided 95% CI of Difference (Midostaurin – Placebo) in QTcF change: -1.1 ms
Healthy volunteers [1]; 3 h
  QTcF change from time-matched baseline, Difference (Midostaurin – Placebo): -3.9 ms
  Upper bound of the one-sided 95% CI of Difference (Midostaurin – Placebo) in QTcF change: 0.1 ms
Healthy volunteers [1]; 4 h
  QTcF change from time-matched baseline, Difference (Midostaurin – Placebo): -3.4 ms
  Upper bound of the one-sided 95% CI of Difference (Midostaurin – Placebo) in QTcF change: 0.6 ms
Healthy volunteers [1]; 8 h
  QTcF change from time-matched baseline, Difference (Midostaurin – Placebo): -0.7 ms
  Upper bound of the one-sided 95% CI of Difference (Midostaurin – Placebo) in QTcF change: 3.3 ms
Healthy volunteers [1]; 12 h
  QTcF change from time-matched baseline, Difference (Midostaurin – Placebo): -0.6 ms
  Upper bound of the one-sided 95% CI of Difference (Midostaurin – Placebo) in QTcF change: 3.4 ms
Healthy volunteers [1]; 24 h
  QTcF change from time-matched baseline, Difference (Midostaurin – Placebo): 0.7 ms
  Upper bound of the one-sided 95% CI of Difference (Midostaurin – Placebo) in QTcF change: 4.7 ms
Healthy volunteers [1]; midostaurin 75 mg twice daily days 1-2, once day 3, 24 h post dose on day 3, ECG set
  maximum mean QTcF change from time-matched baseline compared with placebo: 0.7 ms
Healthy volunteers [1]; 0.5 h after administration
  QTcF change on day 3 from time-matched baseline: -5.2 ms
Healthy volunteers [1]; 1 h after administration
  QTcF change on day 3 from time-matched baseline: -6.3 ms
Healthy volunteers [1]; 2 h after administration
  QTcF change on day 3 from time-matched baseline: -6.2 ms
Healthy volunteers [1]; 3 h after administration
  QTcF change on day 3 from time-matched baseline: -5.2 ms
Healthy volunteers [1]; 4 h after administration
  QTcF change on day 3 from time-matched baseline: -6.4 ms
Healthy volunteers [1]; 8 h after administration
  QTcF change on day 3 from time-matched baseline: -1.9 ms
Healthy volunteers [1]; 12 h after administration
  QTcF change on day 3 from time-matched baseline: -3.1 ms
Healthy volunteers [1]; 24 h after administration
  QTcF change on day 3 from time-matched baseline: -3.9 ms
Healthy volunteers [1]; [6]
  highest upper bound of 95% CI, QTcF change from time-averaged baseline compared with placebo: 4.9 ms
  maximum mean QTcF change from time-averaged baseline compared with placebo: 2.5 ms
Healthy volunteers [2]; 12-lead ECG
  new U-wave abnormalities: No new U-wave abnormalities
  new post baseline T-wave abnormalities: Three
Healthy volunteers [2]; midostaurin 75 mg twice daily
  effects on heart rate, atrioventricular conduction, cardiac depolarization (PR and QRS interval durations): no effects on heart rate, atrioventricular conduction, or cardiac depolarization
Healthy volunteers [2]; safety set
  PR increase ≥25% and resultant PR >200 ms, participants: 0 no. (%)
  QRS increase ≥25% and resultant QRS >100 ms, participants: 0 no. (%)
  QTcB >60 ms, time-matched change from baseline, participants: 0 no. (%)
  QTcF >30 ms, time-matched change from baseline, participants: 0 no. (%)
  QTcF >60 ms, time-matched change from baseline, participants: 0 no. (%)
  QTcI >30 ms, time-matched change from baseline, participants: 0 no. (%)
  QTcI >60 ms, time-matched change from baseline, participants: 0 no. (%)
  RR decrease ≥25% and resultant RR <600 ms, participants: 1 (1.3) no. (%)
  RR increase ≥25% and resultant RR >1,200 ms, participants: 1 (1.3) no. (%)
  QTcB >30 ms, time-matched change from baseline, participants: 1 (1.3) no. (%)
Healthy volunteers [2]; safety set, post baseline
  QTcF New >450 ms, participants: 0 no. (%)
Healthy volunteers [2]; safety set, post baseline, text: between 450 and 480 ms
  QTcB New >450 ms, participants: 1 (1.3%) no. (%)
Healthy volunteers [2]; safety set, listed as midostaurin
  QTcB >30 ms, time-matched change from baseline, participants: 1 (1.3%) no. (%)
Healthy volunteers [3]; human, in vivo
  Abdominal pain: 4 (5.1) no. (%)
  Arthralgia: 0 (0.0) no. (%)
  Diarrhea: 25 (31.6) no. (%)
  Discontinued, main cause Adverse event(s): 19 (23.8) no. (%)
  Dizziness: 0 (0.0) no. (%)
  Dry mouth: 0 (0.0) no. (%)
  Dysmenorrhea: 1 (1.3) no. (%)
  Dyspepsia: 1 (1.3) no. (%)
  Eructation: 3 (3.8) no. (%)
  Flatulence: 3 (3.8) no. (%)
  Flushing: 2 (2.5) no. (%)
  Headache: 5 (6.3) no. (%)
  Hiccups: 2 (2.5) no. (%)
  Hot flushes: 1 (1.3) no. (%)
  Nausea: 30 (38.0) no. (%)
  Pollakiuria: 0 (0.0) no. (%)
  Rash: 0 (0.0) no. (%)
  Salivary hypersecretion: 2 (2.5) no. (%)
  Sexually transmitted disease: 1 (1.3) no. (%)
  Tachycardia: 2 (2.5) no. (%)
  Vomiting: 19 (24.1) no. (%)
Healthy volunteers [3]; human, in vivo, 4 day
  Participants with adverse events: 43 (54.4) no. (%)
Healthy volunteers [3]; midostaurin arm, vomiting within 4 h of dosing
  discontinuations because of gastrointestinal events of vomiting: 17 n
Healthy volunteers [3]; randomized set
  Discontinued, main cause Adverse event(s): 19 no. (%)
  Discontinued, main cause Death: 0 (0.0) no. (%)
[4]
  overall response rate: 69%
[5]; oral, time of peak concentrations post dose, midostaurin dosing, days 1 and 3
  Tmax: 1 h
[5]; po, Day 1 (single dose), midostaurin 75 mg oral
  Cmax: 2140 ng/mL
[5]; po, Day 3 (twice daily), midostaurin 75 mg oral
  Cmax: 2270 ng/mL
[5]; po, Tmax, median (range), Day 1 (single dose), midostaurin 75 mg oral
  Tmax: 1 h
[5]; po, Tmax, median (range), Day 3 (twice daily), midostaurin 75 mg oral
  Tmax: 1.1 h
